From US20260308157A1, “Pyrrolopyrazine Compounds, Preparation Thereof and Therapeutic Uses Thereof” (Sanofi, priority 2023, published 2026)

Legend:
[1] = molecular target: T1, activated catalytic domain of protein ERK5 (Homo sapiens, UniProt Q13164); assay: Cell-Free Assay of ERK5 Inhibition (Time-Resolved Forster Resonance Energy Transfer); format: biochemical; conditions: ERK5 4 nM, 1 mM ATP, 1 μM biotinylated 4EBP1 peptide, 30 min at 37° C.; TR-FRET; mean where repeated
T1 construct: purchased CarnaBiosciences #04-146
Protocol: (§1) Two assays were performed to assess the ERK5 inhibitory activity of compounds of the Examples, a cell-based assay and a cell-free biochemical assay. Where repeat measurements were taken, the value reported is a mean average.
Cell-Free Assay of ERK5 Inhibition
An assay was performed to measure the capacity of each compound to inhibit ERK5 enzymatic activity. Compound potency was evaluated by Time-Resolved Forster Resonance Energy Transfer (FRET system). The activated catalytic domain of protein ERK5 (CarnaBiosciences #04-146) was mixed at 4 nM with varying concentrations of compound and incubated for 30 minutes at room temperature. A mixture of 1 mM ATP and 1 μM biotinylated synthetic peptide was added (Biosyntan GmbH). This synthetic peptide represents amino acids 30-52 of Eukaryotic translation initiation factor 4E-binding protein 1 (see, e.g., the sequence under accession No. NP_004086.1) biotinylated at the N-terminus. After 30 minutes at 37° C., the peptide phosphorylation by ERK5 was measured by addition of FRET reagents consisting of 12.5 µg/ml Streptavidin-XL665, 1 nM Anti-P-4EBP1 antibody and 300 ng/ml Anti-rabbit-K antibody. Following 90 minutes at room temperature fluorescent signals were read on the Pherastar FSX multimod detector from BMG Labtech (Exc° 340 nm, Em1 620 nm, Em2 665 nm). The IC50 values represent the concentration of compound which inhibits the measurable fluorescence signal by […] as compared to the DMSO only control.

Cellular ERK5 Activity = molecular target: T2, Cellular ERK5 Activity (Homo sapiens, UniProt Q13164); assay: Inhibition of Cellular ERK5 Activity (cell-based assay, MEF2 luciferase reporter in SN12C cells); conditions: renal cancer cell line SN12C, doxycycline-induced MEK5DD, 0.3-10000 nM, mean where repeated
T2 construct: MEF2-response-element luciferase reporter (pGreenFire1)
Protocol: as §1
Inhibition of Cellular ERK5 Activity
The renal cancer cell line SN12C was transduced by a lentivirus pGreenFire1 MEF2 EF1 Neo (ref TR030VA-N) from SBI using standard infection protocol. pGreenFire1 MEF2 EF1 Neo allows the expression of luciferase gene under the control of minimal promoter with MEF2 transcriptional response elements. Cells harboring the reporter construct were selected by geneticin treatment. The selected cells were then transposed by a piggyback based plasmid pCM4007 allowing the expression of constitutively activated MEK5DD under control of TREG3 promoter, a doxycycline regulated promoter. Transposed cells were selected by puromycin treatment. Upon doxycycline treatment (1 μg/ml) MEK5DD was expressed. MEK5DD activates ERK5 that phosphorylates MEF2C protein. Activated MEF2C protein can bind to its transcriptional response elements. Then the luciferase is expressed. In a 96-well plate (96F nuncleon ref137101 thermofisher), 50,000 cells were inoculated in 142.5 μl of RPMI medium containing 10% fetal calf serum, 1% glutamine, and 1 μg/ml doxycycline. After 24 hours, compounds were added in 7.5 μl culture medium (with 2% DMSO to give a final concentration of 0.1%) in order to obtain the desired concentration (0.3-10000 nM). The luciferase activity was measured using the Kit Bright Glo Luminescent Cell Assay Cat E2610 (Promega) according to the manufacturer's protocol. Luminescence was determined using 0.2 second reading/well using a Tecan SPARK. IC50 values were calculated using XLFIT5 for Microsoft Excel using method 205. The IC50 values represent the concentration of compound which inhibits the measurable luminescence signal by 50% as compared to DMSO-treated control cells.

T2 sequence (Q13164 whole entry): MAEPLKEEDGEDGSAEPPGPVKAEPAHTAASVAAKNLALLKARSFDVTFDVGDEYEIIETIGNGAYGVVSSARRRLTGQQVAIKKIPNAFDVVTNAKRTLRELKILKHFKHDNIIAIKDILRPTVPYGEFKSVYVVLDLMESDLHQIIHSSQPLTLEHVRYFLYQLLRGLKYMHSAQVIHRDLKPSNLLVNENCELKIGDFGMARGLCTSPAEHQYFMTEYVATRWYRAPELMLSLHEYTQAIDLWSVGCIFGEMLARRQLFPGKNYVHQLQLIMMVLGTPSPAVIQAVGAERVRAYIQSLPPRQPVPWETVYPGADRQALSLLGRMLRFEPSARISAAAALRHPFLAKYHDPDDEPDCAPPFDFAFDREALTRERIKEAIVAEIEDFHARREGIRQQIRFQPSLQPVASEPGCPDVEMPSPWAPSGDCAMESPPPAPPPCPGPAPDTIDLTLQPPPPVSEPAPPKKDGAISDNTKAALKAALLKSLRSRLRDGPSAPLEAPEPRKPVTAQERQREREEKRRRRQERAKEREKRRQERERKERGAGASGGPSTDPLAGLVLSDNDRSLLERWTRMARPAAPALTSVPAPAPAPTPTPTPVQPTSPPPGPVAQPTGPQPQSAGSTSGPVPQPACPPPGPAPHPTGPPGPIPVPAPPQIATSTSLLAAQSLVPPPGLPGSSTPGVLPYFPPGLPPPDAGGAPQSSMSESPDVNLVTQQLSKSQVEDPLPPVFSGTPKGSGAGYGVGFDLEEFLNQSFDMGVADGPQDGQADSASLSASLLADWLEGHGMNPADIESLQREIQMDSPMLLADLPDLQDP
T1 sequence (Q13164 55-347 limits assumed): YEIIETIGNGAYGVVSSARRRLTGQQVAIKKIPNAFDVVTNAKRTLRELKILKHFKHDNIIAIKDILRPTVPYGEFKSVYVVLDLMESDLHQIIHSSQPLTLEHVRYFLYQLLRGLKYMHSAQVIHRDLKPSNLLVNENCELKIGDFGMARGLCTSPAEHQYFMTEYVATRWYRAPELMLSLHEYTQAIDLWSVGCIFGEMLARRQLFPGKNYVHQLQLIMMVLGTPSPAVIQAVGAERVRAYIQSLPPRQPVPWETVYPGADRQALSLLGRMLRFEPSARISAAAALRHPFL

IC50 [1] [nM]	IC50 (Cellular ERK5 Activity) [nM]	SMILES
212	88	O=C(c1ccc(OC(F)(F)F)cc1)N1CCC(c2c[nH]c3ncc(C4CCOC4)nc23)CC1 (racemic) [Example 5, (rac)-[4-(2-Tetrahydrofuran-3-yl-5H-pyrrolo[2,3-b]pyrazin-7-yl)-1-piperidyl]-[4-(trifluoromethoxy)phenyl]methanone]
130	–	Nc1cc(OC(F)(F)F)ccc1C(=O)N1CCC(c2c[nH]c3ncc(C4CCOC4)nc23)CC1 (racemic) [Example 12, (rac)-[2-Amino-4-(trifluoromethoxy)phenyl]-[4-(2-tetrahydrofuran-3-yl-5H-pyrrolo[2,3-b]pyrazin-7-yl)-1-piperidyl]methanone]
–	261	Nc1cc(OC(F)(F)F)ccc1C(=O)N1CCC(c2c[nH]c3ncc(C4CCOCC4)nc23)C1 (racemic) [Example 24, (rac)-[2-Amino-4-(trifluoromethoxy)phenyl]-[3-(2-tetrahydropyran-4-yl-5H-pyrrolo[2,3-b]pyrazin-7-yl)pyrrolidine-1-yl]methanone]
–	230	O=C(c1ccc(OC(F)(F)F)cc1)N1CCC(c2c[nH]c3ncc(C4CCOCC4)nc23)C1 (racemic) [Example 25, (rac)-[3-(2-Tetrahydropyran-4-yl-5H-pyrrolo[2,3-b]pyrazin-7-yl)pyrrolidin-1-yl]-[4-(trifluoromethoxy)phenyl]methanone]
291	124	O=C(c1ccc(OC(F)(F)F)cc1)N1CCC(c2c[nH]c3ncc(NC4CCOC4)nc23)CC1 (racemic) [Example 36, (rac)-[4-[2-[[tetrahydrofuran-3-yl]amino]-5H-pyrrolo[2,3-b]pyrazin-7-yl]-1-piperidyl]-[4-(trifluoromethoxy)phenyl]methanone]
94	60	Nc1cc(OC(F)(F)F)ccc1C(=O)N1CCC(c2c[nH]c3ncc(NC4CCOC4)nc23)CC1 (racemic) [Example 37, (rac)-[2-amino-4-(trifluoromethoxy)phenyl]-[4-[2-[[tetrahydrofuran-3-yl]amino]-5H-pyrrolo[2,3-b]pyrazin-7-yl]-1-piperidyl]methanone]
9720	357	Nc1cc(S(F)(F)(F)(F)F)ccc1C(=O)N1CCC(c2c[nH]c3ncc(C4CCOCC4)nc23)C1 (racemic) [Example 43, (rac)-[2-amino-4-(pentafluoro-λ^6-sulfanyl)phenyl]-[3-(2-tetrahydropyran-4-yl-5H-pyrrolo[2,3-b]pyrazin-7-yl)pyrrolidin-1-yl]methanone]
93	49	Nc1cc(OC(F)(F)F)ccc1C(=O)N1CCC(c2c[nH]c3ncc(C4CCOC4)nc23)CC1 (single isomer, unassigned) [Example 13, [2-Amino-4-(trifluoromethoxy)phenyl]-[4-(2-tetrahydrofuran-3-yl-5H-pyrrolo[2,3-b]pyrazin-7-yl)-1-piperidyl]methanone]
99	46	Nc1cc(OC(F)(F)F)ccc1C(=O)N1CCC(c2c[nH]c3ncc(C4CCOC4)nc23)CC1 (single isomer, unassigned) [Example 14, [2-Amino-4-(trifluoromethoxy)phenyl]-[4-(2-tetrahydrofuran-3-yl-5H-pyrrolo[2,3-b]pyrazin-7-yl)-1-piperidyl]methanone]
361	79	O=C(c1ccc(OC(F)(F)F)cc1)N1CCC(c2c[nH]c3ncc(NC4CCOC4)nc23)CC1 (single isomer, unassigned; isomer 1) [Example 32, [4-[2-[[tetrahydrofuran-3-yl]amino]-5H-pyrrolo[2,3-b]pyrazin-7-yl]-1-piperidyl]-[4-(trifluoromethoxy)phenyl]methanone, Isomer 1]
94	> 10000	Nc1cc(OC(F)(F)F)ccc1C(=O)N1CCC(c2c[nH]c3ncc(NC4CCOC4)nc23)CC1 (single isomer, unassigned; isomer 1) [Example 34, [2-amino-4-(trifluoromethoxy)phenyl]-[4-[2-[[tetrahydrofuran-3-yl]amino]-5H-pyrrolo[2,3-b]pyrazin-7-yl]-1-piperidyl]methanone, Isomer 1]
335	126	O=C(c1ccc(OC(F)(F)F)cc1)N1CCC(c2c[nH]c3ncc(NC4CCOC4)nc23)CC1 (single isomer, unassigned; isomer 2) [Example 33, [4-[2-[[tetrahydrofuran-3-yl]amino]-5H-pyrrolo[2,3-b]pyrazin-7-yl]-1-piperidyl]-[4-(trifluoromethoxy)phenyl]methanone, Isomer 2]
131	246	Nc1cc(OC(F)(F)F)ccc1C(=O)N1CCC(c2c[nH]c3ncc(NC4CCOC4)nc23)CC1 (single isomer, unassigned; isomer 2) [Example 35, [2-amino-4-(trifluoromethoxy)phenyl]-[4-[2-[[tetrahydrofuran-3-yl]amino]-5H-pyrrolo[2,3-b]pyrazin-7-yl]-1-piperidyl]methanone, Isomer 2]
17	20	CN1CCC(c2cnc3[nH]cc(C4CCN(C(=O)c5ccc(OC(F)(F)F)cc5N)CC4)c3n2)CC1 [Example 1, [2-Amino-4-(trifluoromethoxy)phenyl]-[4-[2-(1-methyl-4-piperidyl)-5H-pyrrolo[2,3-b]pyrazin-7-yl]-1-piperidyl]methanone]
37	15	Nc1cc(OC(F)(F)F)ccc1C(=O)N1CCC(c2c[nH]c3ncc(C4CCOCC4)nc23)CC1 [Example 2, [2-Amino-4-(trifluoromethoxy)phenyl]-[4-(2-tetrahydropyran-4-yl-5H-pyrrolo[2,3-b]pyrazin-7-yl)-1-piperidyl]methanone]
172	41	O=C(c1ccc(OC(F)(F)F)cc1)N1CCC(c2c[nH]c3ncc(C4CCOCC4)nc23)CC1 [Example 3, [4-(2-Tetrahydropyran-4-yl-5H-pyrrolo[2,3-b]pyrazin-7-yl)-1-piperidyl]-[4-(trifluoromethoxy)phenyl]methanone]
66	60	CN1CCC(c2cnc3[nH]cc(C4CCN(C(=O)c5ccc(OC(F)(F)F)cc5)CC4)c3n2)CC1 [Example 4, [4-[2-(1-Methyl-4-piperidyl)-5H-pyrrolo[2,3-b]pyrazin-7-yl]-1-piperidyl]-[4-(trifluoromethoxy)phenyl]methanone]
403	118	COCCCc1cnc2[nH]cc(C3CCN(C(=O)c4ccc(OC(F)(F)F)cc4)CC3)c2n1 [Example 6, [4-[2-(3-Methoxypropyl)-5H-pyrrolo[2,3-b]pyrazin-7-yl]-1-piperidyl]-[4-(trifluoromethoxy)phenyl]methanone]
169	56	COCCCc1cnc2[nH]cc(C3CCN(C(=O)c4ccc(OC(F)(F)F)cc4N)CC3)c2n1 [Example 7, [2-Amino-4-(trifluoromethoxy)phenyl]-[4-[2-(3-methoxypropyl)-5H-pyrrolo[2,3-b]pyrazin-7-yl]-1-piperidyl]methanone]
25900	226	O=C(c1ccc(OC(F)(F)F)cc1)N1CCC(c2c[nH]c3ncc(C4CCCCC4)nc23)CC1 [Example 8, [4-(2-Cyclohexyl-5H-pyrrolo[2,3-b]pyrazin-7-yl)-1-piperidyl]-[4-(trifluoromethoxy)phenyl]methanone]
2150	156	Nc1cc(OC(F)(F)F)ccc1C(=O)N1CCC(c2c[nH]c3ncc(C4CCCCC4)nc23)CC1 [Example 9, [2-Amino-4-(trifluoromethoxy)phenyl]-[4-(2-cyclohexyl-5H-pyrrolo[2,3-b]pyrazin-7-yl)-1-piperidyl]methanone]
39	–	Nc1cc(OC(F)(F)F)ccc1C(=O)N1CCC(c2c[nH]c3ncc([C@H]4CC[C@H](O)CC4)nc23)CC1 [Example 30, trans-[2-amino-4-(trifluoromethoxy)phenyl]-[4-[2-(4-hydroxycyclohexyl)-5H-pyrrolo[2,3-b]pyrazin-7-yl]-1-piperidyl]methanone]
